Measurements: the supplement of paper PMC11061612

What was measured:
[1] = system: NCI-H1876 (Small Cell Lung Carcinoma); assay: combination Emax (second highest fraction inhibited in the dose matrix, 72 h); higher = more inhibition; extreme values may be limits of the assay
Method in brief: (§1)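 After 24 hours at 37°C and 5% CO2 in 1536-well plates, cells in DMEM/F12 or RPMI plus 10% FBS received two-drug dose matrices for 72 hours. Viability came from CellTiter-Glo 2.0 luminescence and was scaled as inhibition, anchored at 0 by vehicle wells and at 1 by blank wells. Combination Emax is taken as the second-highest inhibition in the matrix, and Bliss excess as the observed combination effect less EA + EB − EA·EB, with EA and EB the single-agent effects.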

[2] = system: LCLC-103H (Non-Small Cell Lung Carcinoma); assay: as above
Method in brief: as §1

NB1 (Neuroblastoma) = assay: as above
Method in brief: as §1

[3] = system: RCC-JW (Kidney Carcinoma); assay: as above
Method in brief: as §1

[4] = system: ZR-75-30 (Breast Carcinoma); assay: as above
Method in brief: as §1

[5] = system: SNU-423 (Hepatocellular Carcinoma); assay: as above
Method in brief: as §1

UACC-257 (Melanoma) = assay: as above
Method in brief: as §1

[6] = system: SNU-C2B (Colorectal Carcinoma); assay: as above
Method in brief: as §1

[7] = system: MDA-MB-415 (Breast Carcinoma); assay: as above
Method in brief: as §1

[8] = system: Raji (Burkitt's Lymphoma); assay: as above
Method in brief: as §1

WM35 (Melanoma) = assay: as above
Method in brief: as §1

[9] = system: NAMALWA (Burkitt's Lymphoma); assay: as above
Method in brief: as §1

[10] = system: P30-OHK (B-Lymphoblastic Leukemia); assay: as above
Method in brief: as §1

[11] = system: MM1S (Plasma Cell Myeloma); assay: as above
Method in brief: as §1

[12] = system: NCI-H1963 (Small Cell Lung Carcinoma); assay: as above
Method in brief: as §1

AM-38 (Glioblastoma) = assay: as above
Method in brief: as §1

[13] = system: PA-TU-8988T (Pancreatic Carcinoma); assay: as above
Method in brief: as §1

[14] = system: MOLT-13 (T-Lymphoblastic Leukemia); assay: Bliss excess, mean over the matrix (fraction); higher = more synergy
Method in brief: as §1

[15] = system: BHT-101 (Thyroid Gland Carcinoma); assay: as above
Method in brief: as §1

[16] = system: MDA-MB-415 (Breast Carcinoma); assay: as above
Method in brief: as §1
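Wherever Bliss excess, mean over the matrix is given: after 72 h of two-drug dosing.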

Structure (SMILES) | combination Emax [1] | combination Emax [2] | combination Emax (NB1 (Neuroblastoma)) | combination Emax [3] | combination Emax [4] | combination Emax [5] | combination Emax (UACC-257 (Melanoma)) | combination Emax [6] | combination Emax [7] | combination Emax [8] | combination Emax (WM35 (Melanoma)) | combination Emax [9] | combination Emax [10] | combination Emax [11] | combination Emax [12] | combination Emax (AM-38 (Glioblastoma)) | combination Emax [13] | Bliss excess [14] | Bliss excess [15] | Bliss excess [16]
CC1(C)CCC(CN2CCN(c3ccc(C(=O)NS(=O)(=O)c4ccc(NCC5CCOCC5)c([N+](=O)[O-])c4)c(Oc4cnc5[nH]ccc5c4)c3)CC2)=C(c2ccc(Cl)cc2)C1 [Venetoclax] + C[C@@H]1COCCN1C2=NC(=NC(=C2)C3(CC3)[S@](=N)(=O)C)C4=C5C=CNC5=NC=C4 [AZD6738] (first compound max 1 µM, 7x7, partner max 10 µM) | 0.942 | 0.55 | 0.789 | 0.469 | 0.191 | 0.441 | 0.169 | 0.592 | 0.509 | 0.733 | 0.269 | 0.889 | 1 | 0.527 | 0.985 | 0.732 | 0.345 | 0.0201 | -0.0888 | -0.0584
CC1(C)CCC(CN2CCN(c3ccc(C(=O)NS(=O)(=O)c4ccc(NCC5CCOCC5)c([N+](=O)[O-])c4)c(Oc4cnc5[nH]ccc5c4)c3)CC2)=C(c2ccc(Cl)cc2)C1 [Venetoclax] + C[C@@H](Nc1cc(F)cc(F)c1)c1cc(C(=O)N(C)C)cc2c(=O)cc(N3CCOCC3)oc12 [AZD8186] (first compound max 1 µM, 7x7, partner max 3 µM) | 0.182 | 0.253 | 0.145 | 0.293 | 0.24 | 0.383 | 0.121 | 0.125 | 0.663 | 0.172 | 0.0866 | 0.428 | 0.794 | 0.288 | 0.758 | 0.157 | 0.257 | 0.095 | 0.0031 | -0.0128
CC1(C)CCC(CN2CCN(c3ccc(C(=O)NS(=O)(=O)c4ccc(NCC5CCOCC5)c([N+](=O)[O-])c4)c(Oc4cnc5[nH]ccc5c4)c3)CC2)=C(c2ccc(Cl)cc2)C1 [Venetoclax] + Cc1cc2ncnn2cc1Nc1ncc2c(n1)n(C1CCOCC1)c(=O)n2C [AZD7648] (first compound max 1 µM, 7x7, partner max 10 µM) | 0.274 | 0.282 | 0.561 | 0.151 | 0.123 | 0.292 | 0.159 | 0.26 | 0.342 | 0.152 | 0.204 | 0.459 | 0.569 | 0.229 | 0.744 | 0.318 | 0.238 | 0.063 | -0.0011 | -0.117
CC1(C)CCC(CN2CCN(c3ccc(C(=O)NS(=O)(=O)c4ccc(NCC5CCOCC5)c([N+](=O)[O-])c4)c(Oc4cnc5[nH]ccc5c4)c3)CC2)=C(c2ccc(Cl)cc2)C1 [Venetoclax] + Cn1cnc2c(F)c(Nc3ccc(Br)cc3Cl)c(C(=O)NOCCO)cc21 [Selumetinib] (first compound max 1 µM, 7x7, partner max 3 µM) | 0.205 | 0.115 | 0.0633 | 0.144 | 0.159 | 0.192 | 0.621 | 0.27 | 0.176 | 0.0995 | 0.757 | 0.286 | 0.303 | 0.306 | 0.76 | 0.498 | 0.272 | 0.241 | -0.0959 | -0.0498
